The text below walks through data of patent publication US20040077639A1, “Methods for the treatment of respiratory diseases and conditions using a selective iNOS inhibitor” (priority 2002, published 2004).

The subject of series [1] is LPS-induced increase in plasma nitrite/nitrate levels. Nature of the series: In vivo assay: endotoxin (LPS)-treated rats, plasma nitrite/nitrate. Also noted: species or system rat. Particulars: Rattus norvegicus, oral administration, plasma nitrite/nitrate 5 hours post-treatment, read-out: ED50. Here is the method: Plasma nitrite/nitrate levels can be determined 5 hours post-treatment.

Series [2] has as its target i-NOS (Homo sapiens, UniProt P35228). The experiment in a line: Comparison of i-NOS inhibition with NIL amide and NIL dimethylamide. It counts as biochemical.
Series [3] can be described thus: Clinical study: tolerability, FEV1, blood pressure, heart rate, laboratory parameters. It counts as in vivo, human. Here is the method: (§1) A single center study was performed at the National Heart and Lung Institute (NHLI) Clinical Studies Unit in London, UK. The clinical protocol was submitted and accepted by the Ethics Committee of the Royal Brompton Hospital Trust, and the study was carried out according to Good Clinical Practice standards. Each subject provided written informed consent.
(§2) Twenty-four, adult, healthy volunteers and 24 patients with mild asthma participated in this study. All subjects were lifelong non-smokers. Asthma patients (n=24) had mild asthma according to American Thoracic Society Criteria, with medication on an as required basis with inhaled albuterol only. […] All asthmatic patients had baseline exhaled breath NO levels of >15 parts per billion (ppb). Healthy control (n=24) subjects were matched for age and sex, and had no clinically significant disease. Healthy subjects were required to have baseline exhaled NO levels between 4 and 9 ppb.
The study included 2 panels of healthy volunteers and asthmatic patients who received in a double-blind, randomized manner, a single dose of oral compound NN or placebo. The study was carried out in two phases according to the dose of compound NN under investigation. The first panel consisted of patients with mild-to-moderate asthma (n=12) and healthy subjects (n=12) who received single doses of 20 mg of compound NN and placebo, while the second panel of mild-to-moderate asthmatics (n=12) and healthy subjects (n=12) received single doses of 200 mg of compound NN and placebo. No patient or subject participated in both panels of this study. Evaluation of the first panel was completed before moving on to the second panel. The study evaluated the tolerability and pharmacokinetics of orally-administered compound NN and monitored levels of exhaled breath NO.
Forced expiratory volume in 1 sec (FEV1) and heart rate data had no significant deviations from normality using the Shapiro-Wilks test, therefore parametric statistical methods were used, and the significance of the change from baseline was tested using a paired […]. […]

Series [4] relates to exhaled breath nitric oxide (NO). The experiment in a line: Clinical study: exhaled breath NO after single oral dose. It counts as in vivo, human. How it is done:
as §1, §2
The study included 2 panels of healthy volunteers and asthmatic patients who received in a double-blind, randomized manner, a single dose of oral compound NN or placebo. The study was carried out in two phases according to the dose of compound NN under investigation. […] The study evaluated the tolerability and pharmacokinetics of orally-administered compound NN and monitored levels of exhaled breath NO.
Measurement of exhaled NO: Exhaled NO was measured using a chemoluminescence analyzer (Logan 2000, Rochester, UK) and methods in accordance with International Guidelines. […] Two successive recordings were taken, and the average value was calculated.
Statistical methods for clinical data: Exhaled NO data, including change from baseline and the percentage change, were tested for normality using the Shapiro-Wilks test. […] The area under the curve (AUC) for the change from baseline and the percentage change, and the differences between active and placebo were calculated. […]

Series [5] deals with airway inflammation. Particulars: murine model of allergic asthma; by down-regulation of chemokine expression; cited from earlier work.
The subject of series [6] is exhaled NO. Particulars: high doses, literature; cited from earlier work.
Series [7] deals with iNOS protein expression in human primary airway epithelial cells. Nature of the series: Western blotting of iNOS from cultured epithelial cells. It counts as cell-based. Particulars: cytomix-treated cells; FIG. 2. How it is done:
Westem blotting of INOS from cultured epithelial cells: Following incubation with the cytokine mixture alone or with various concentrations of L-NIL, epithelial cells were lysed in 50 mM Tris/HCl, pH 7.4, containing 0.25 mM ethylene diaminotetraacetic acid, 0.5 mM phenylmethylsulfonyl fluoride, 5 μg/ml antipain, 5 μg/ml leupeptin and 5 μg/ml benzaminidine. The protein concentration was determined using the BioRad protein assay kit according to the manufacturer's instructions. Cell proteins were solubilized in sodium dodecyl sulfate polyacrylamide gel electrophoresis sample buffer ([…] Tris/HCl, pH 6.8, containing 10% v/v glycerol, 1% w/v SDS, 1% w/v β-mercaptoethanol, and 0.01% w/v bromophenol blue). The proteins (15 μg per lane) were resolved by electrophoresis in 3-8% (w/v) Tris-acetate SDS-polyacrylamide gels and transferred to Hybond-Enhanced Chemi-luminescence (ECL) nitro-cellulose membranes. Equal protein loading was determined by staining the blot with 0.1% (w/v) Ponceau S in 5% (v/v) acetic acid. The nitro-cellulose was then blocked overnight at 4° C. in 0.5M Tris-HCl,pH 7.4, containing 3% (w/v) normal goat serum, 1% (w/v) bovine serum albumin and 0.05% (v/v) Tween-20. […]
Media was harvested and measured for nitrite content (FIG. 1). […]

The subject of series [8] is iNOS activity in human primary airway epithelial cells. The experiment in a line: Nitrite in media of cytokine-treated human primary airway epithelial cells. It is filed as cell-based. The following applies: 50 ng/ml IL-1β, TNF-α and IFN-γ (cytomix), 24 h; FIG. 1; read-out: IC50 for inhibition of the increase in nitrite in the media. Here is the method: Human primary airway epithelial cell cultures: Human primary airway epithelial cells were cultured as described previously (see Donnelly,L. E. and Barnes, P. J. Am J Respir Cell Mol.Biol 24:295-303 (2000)), and the amount of nitrite, the stable oxidation product of NO, in the cell culture media was measured using a modification of the spectrofluorometric method of Misko et al., Anal. Biochem. […] (1993).
The protein was evenly distributed throughout the cytoplasm in basal cells but clearly located beneath the cilia in the columnar, ciliated cells. Treatment of airway epithelial cells with 50 ng/ml of IL-1β, TNF-α and IFN-γ (cytomix) for 24 h caused an induction of iNOS protein and an increase in the accumulation of nitrite in cell culture media from 2.20±0.2 μM in the absence of cytomix, to 3.5±0.4 μM in the presence of cytomix.
Media was harvested and measured for nitrite content (FIG. 1). Cellular proteins were resolved on 3-8% tris-acetate polyacrylamide gels and immunoblotted for iNOS protein (FIG. 2).
Rather, as expected, it appears to result from inhibition of enzymatic activity.

Structures are written as SMILES. Entries after “also recorded” stand apart in the source; their conditions may differ. Structures can show the parent of a compound that is named as a salt.

Chain of i-NOS (P35228 whole entry): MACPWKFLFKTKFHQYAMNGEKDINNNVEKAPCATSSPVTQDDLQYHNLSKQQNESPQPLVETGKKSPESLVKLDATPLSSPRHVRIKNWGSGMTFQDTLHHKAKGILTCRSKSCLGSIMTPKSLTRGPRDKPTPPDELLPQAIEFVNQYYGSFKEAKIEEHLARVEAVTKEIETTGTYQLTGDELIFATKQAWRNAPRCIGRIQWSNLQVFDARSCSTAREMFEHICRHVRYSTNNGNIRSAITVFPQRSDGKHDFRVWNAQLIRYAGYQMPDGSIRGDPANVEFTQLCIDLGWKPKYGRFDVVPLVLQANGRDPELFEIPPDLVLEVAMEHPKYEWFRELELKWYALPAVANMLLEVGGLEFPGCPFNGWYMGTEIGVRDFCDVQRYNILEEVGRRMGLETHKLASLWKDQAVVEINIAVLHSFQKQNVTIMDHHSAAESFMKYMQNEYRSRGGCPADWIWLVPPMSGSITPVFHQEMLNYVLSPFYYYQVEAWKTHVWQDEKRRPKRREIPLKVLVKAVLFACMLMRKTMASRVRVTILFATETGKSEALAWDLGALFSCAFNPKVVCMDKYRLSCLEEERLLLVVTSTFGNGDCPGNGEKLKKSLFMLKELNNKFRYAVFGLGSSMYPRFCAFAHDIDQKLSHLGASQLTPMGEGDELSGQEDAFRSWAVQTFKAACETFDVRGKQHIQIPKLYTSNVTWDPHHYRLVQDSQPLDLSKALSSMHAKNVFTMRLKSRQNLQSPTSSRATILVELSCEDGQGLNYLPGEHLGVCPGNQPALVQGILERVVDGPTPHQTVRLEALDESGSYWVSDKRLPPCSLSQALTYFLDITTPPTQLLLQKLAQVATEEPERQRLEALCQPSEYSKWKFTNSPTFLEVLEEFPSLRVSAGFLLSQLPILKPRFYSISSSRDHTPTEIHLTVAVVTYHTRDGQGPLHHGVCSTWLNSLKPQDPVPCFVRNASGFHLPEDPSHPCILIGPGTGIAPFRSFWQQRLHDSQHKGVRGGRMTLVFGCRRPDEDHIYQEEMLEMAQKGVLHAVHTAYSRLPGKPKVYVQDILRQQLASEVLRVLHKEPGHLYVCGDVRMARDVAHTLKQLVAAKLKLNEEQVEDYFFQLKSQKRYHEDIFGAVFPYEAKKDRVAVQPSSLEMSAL

As a reminder, the ED50 is the midpoint of the dose-response relation. The melting point is the temperature of the solid-liquid transition. As for `CC(=NO)NC/C(F)=C\CC[C@H](N)C(=O)O` [Example G, (2S,5E)-2-amino-6-fluoro-7-[(1-hydroximinoethyl)amino]-5-heptenoic acid], the melting point fell in the range of 198 to 200 °C. Also, the ED50 in [1] was under 0.1 mg/kg.
Turning to `CC(=N)NCCCC[C@H](N)C(=O)Nc1nnn[nH]1` [Example NN, 2S-amino-6-[(1-iminoethyl)amino]-N-(1H-tetrazol-5-yl) hexanamide, hydrate, dihydrochloride], the “i-NOS inhibitory potency compared with NIL amide or NIL dimethylamide” value in [2] is “more potent”. Also, in series [3] (200 mg oral, FIG. 4), the “effects on heart rate, blood pressure and FEV1” value is recorded as “no apparent effects”. The “effect on haematology or blood biochemistry” value in series [3] (single oral dose) is “no effect”. Further, in [3] (single oral dose, healthy volunteers and asthmatics, FIG. 4), the tolerability result was “well tolerated”. Besides, the “change in exhaled NO” value in series [4] (20 mg and 200 mg single oral doses, healthy volunteers and asthmatics, 72 hour assessment, FIG. 3, hydrate, dihydrochloride) is “rapid reduction in exhaled NO; also recorded: of rapid onset and dose-related”. Also, the “inhibition of exhaled NO” value in series [4] (200 mg single oral dose, asthma) is on record as 95%. Further, the “duration of decrease in exhaled breath NO” value in [4] (single oral dose, healthy volunteers and asthmatics) came out at 3 days.
On to `COC(=O)[C@@H](N)CCCNC(=N)N[N+](=O)[O-]` [L-NAME], for which, in [5], the “effect on airway inflammation” value is reported as “suppressed airway inflammation”. Moreover, the “inhibition of exhaled NO” value in series [6] is “approximately 70%”.
The IC50 is the concentration at which inhibition is half-maximal. For `CC(=N)NCCCC[C@H](N)C(=O)O` [L-NIL], in series [7], the “effect on iNOS expression as detected by immunoblotting” value is “did not affect”. In series [8], the half-inhibitory concentration (IC50) was about 5.7 µM.
As to `N=C(N)NN` [amino-guanidine], the “inhibition of exhaled NO” value in series [6] was “approximately 70%”.
